According to paper PMC12436592 (Nature Communications, 2025):
Where “and” joins values, the source holds several entries; their conditions need not be identical. Equal entries are not always repeated.

Target: T1, hP2X7R (Homo sapiens, UniProt Q99572)
T1 sequence (Q99572 1-595): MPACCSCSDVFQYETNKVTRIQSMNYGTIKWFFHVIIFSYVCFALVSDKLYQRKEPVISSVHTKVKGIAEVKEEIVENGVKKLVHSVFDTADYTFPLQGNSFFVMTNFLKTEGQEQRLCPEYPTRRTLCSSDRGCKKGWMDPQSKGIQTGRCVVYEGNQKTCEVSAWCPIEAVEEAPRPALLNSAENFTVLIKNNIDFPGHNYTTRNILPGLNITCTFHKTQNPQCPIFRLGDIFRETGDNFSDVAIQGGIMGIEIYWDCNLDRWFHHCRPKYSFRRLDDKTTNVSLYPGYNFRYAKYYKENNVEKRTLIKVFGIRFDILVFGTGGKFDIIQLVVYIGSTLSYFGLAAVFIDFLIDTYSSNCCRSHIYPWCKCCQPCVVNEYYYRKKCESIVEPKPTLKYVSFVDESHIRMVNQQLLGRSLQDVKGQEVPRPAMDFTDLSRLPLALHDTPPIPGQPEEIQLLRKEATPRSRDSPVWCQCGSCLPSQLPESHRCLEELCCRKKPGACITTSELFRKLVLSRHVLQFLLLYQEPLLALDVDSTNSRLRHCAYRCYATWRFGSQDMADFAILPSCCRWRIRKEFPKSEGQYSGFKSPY
Assay: TEVC determination of antagonist binding kinetics in Xenopus oocytes
Assay type: cell-based
Set-up: expressed in transfected cells; host or cells: Xenopus laevis oocytes injected with capped cRNA (modified pUC19 vector, T7)
Conditions: for IC50: Supplementary Fig. 10D, read-out: IC50 from binding equilibrium (plateau) dose inhibition curve; for off-rate of binding to the hP2X7R: graphically determined (y-intercept); for off-rate, Response [%]: single replicates
Description: Xenopus laevis frogs were from Nasco International (Fort Atkinson, WI) and kept at the Core Facility Animal Models (CAM) of the Biomedical Center (BMC) of LMU Munich, Germany (Az:4.3.2–5682/LMU/BMC/CAM) in accordance with the EU Animal Welfare Act. Ovaries were surgically extracted (ROB_54-011-AZ 2532.Vet_02-23-166), treated with collagenase (Nordmark, Uetersen, Germany 1.0–1.5 mg/mL, ≥2 at RT) and defolliculated (15-min treatment in Ca^2+-free oocyte Ringer (90 mM NaCl, 1 mM KCl, 2 mM MgCl2, 5 mM HEPES), respectively. 50 nL of cRNA (0.5 µg/µL) were injected using a Nanoject II injector (Science Products, Drummond) and oocytes were kept in ND96 (96 mM NaCl, 2 mM KCl, 1 mM MgCl2, 1 mM CaCl2, 5 mM HEPES, pH 7.4–7.5). The plasmid containing the hP2X7R was linearized with NotI-HF (NEB) and purified with the MinElute Reaction Cleanup Kit (Qiagen, Hilden, Germany). Capped cRNA was synthesized using the mMESSAGE mMACHINE™ T7 Transcription Kit (ThermoFisher Scientific, Schwerte, Germany) and dissolved in nuclease-free water (500 ng/µL). Injected oocytes were allowed to express for at least 36 hours.
Two-electrode voltage clamp recordings were performed at room temperature and a holding potential of −70 mV using a Turbo Tec-05X Amplifier (npi electronic, Tamm, Germany), a magnetic valve system, and CellWorks E 5.5.1 software. Currents were filtered at 1 kHz and digitized at 200 Hz. Electrode resistances were below 1.2 MΩ. […] Recordings were performed in ND96.
After obtaining reproducible agonist-evoked responses, solutions were switched to antagonist-containing recording solutions with and without ATP to determine association rates. Responses following antagonist application were normalized to the preceding, stabilized agonist responses. Dissociation was determined in 1- or 2 min intervals when currents were reduced to <10%. Association curves were fit to the data by the equation % Response = (100-Plateau)*exp(-kobs*Time) + Plateau, where Plateau indicates the response at equilibrium and kobs the experimentally determined on-rate. All data were analyzed using Prism software (GraphPad Software, Inc., Version 8.3.0, San Diego, CA) and are presented as means ± SD from at least three oocytes. […] The final concentration of DMSO in the recording solution was ≤1%.
Supplementary Fig. 10: Kinetics of ligands binding to the hP2X7R measured by TEVC. (A) […]
All data represented as mean ± S.D. with n=3, 7, 7, and 7 f or the experiments performed at 3 nM, 10 nM, 30 nM, and 100 nM […]
(B) Representative current traces for t he activation
(C) On- and off-r at e constants and Ki
Observed on- r at es kobs were determined by fitting the data (Fig. 4H, Supplementary Fig. 10A) to the function: % response = (100- Plateau)*exp(-kobs*time)+Plateau and plotted against the antagonist concentrations to obtain koff according to k obs=kon*F+koff. Assuming a (simplified) 1:1 binding model, of f-r at e constant koff and Ki values were estimated using the previous formulas as well as Ki=koff/kon. […]
determined by Ca2+ imaging (18 nM, Fig. 3B ) and the binding equilibrium reached at each […]
values of UB-MBX-46 c annot reflect an accurate value due to the nearly negligible dissociation on the timescale of the experiment. If k off was estimated based on the IC50 value (IC50 = koff/kon panel D), a more accurate koff value can be obtained. Numbers in square brackets are 95% Confidence Intervals. *values obtained from an extrapolated dose inhibition curve from D . (D) The plateau values, representing the binding equilibrium, were used to generate dose inhibition

O=C(NNc1ccccc1Cl)C12CC3CC(CC(C3)C1)C2 [UB-ALT-P30, reference compound]
Ki (Ki=koff/kon, 1:1 binding model): 28 nM | IC50 (TEVC): 15 nM | off-rate of binding to the hP2X7R (TEVC): 0.29 min⁻¹ | Response %, plateau (binding equilibrium) (log [Antagonist] M -7): 5.6% and 1.4% and 0% and 2.8% | Response %, plateau (binding equilibrium) (log [Antagonist] M -8): 55.2% and 63.2% and 73.1% | off-rate, Response [%] (time 2 min): 6.1% and 5.1% and 4% and 3.2% and 6.5% | off-rate, Response [%] (time 4 min): 18.2% and 19.2% and 16% and 12.9% and 19.4% | off-rate, Response [%] (time 6 min): 33.3% and 37.2% and 28% and 29% and 32.3% | off-rate, Response [%] (time 8 min): 48.5% and 57.7% and 44% and 38.7% and 48.4% | off-rate, Response [%] (time 10 min): 63.6% and 73.1% and 60% and 54.8% and 64.5%

CC12CC3CC1(C)C1(C)CC3(C(=O)NNc3ccccc3Cl)CC21C [UB-MBX-46]
Response [%], on-rate to hP2X7R (3 nM, 8 min): 81.7% and 82.6% and 84.4% | Response [%], on-rate to hP2X7R (3 nM, 10 min): 79.7% and 80.2% and 82.1% | Response [%], on-rate to hP2X7R (3 nM, 12 min): 77.1% and 77.3% and 80.4% | Response [%], on-rate to hP2X7R (3 nM, 14 min): 75.7% and 75% and 78.9% | Response [%], on-rate to hP2X7R (3 nM, 16 min): 74.3% and 73.3% and 77.9% | Response [%], on-rate to hP2X7R (3 nM, 18 min): 72.4% and 72% and 76.9% | Response [%], on-rate to hP2X7R (3 nM, 20 min): 71.3% and 75.5% | Response [%], on-rate to hP2X7R (3 nM, 22 min): 71.1% and 69.9% and 74.3% | Response [%], on-rate to hP2X7R (3 nM, 24 min): 70.1% and 68.7% and 73% | Response [%], on-rate to hP2X7R (3 nM, 26 min): 68.4% and 67% and 71.9% | Response [%], on-rate to hP2X7R (3 nM, 28 min): 67.5% | Response [%], on-rate to hP2X7R (10 nM, 8 min): 46.2% and 42.1% and 45.9% and 43.2% | Response [%], on-rate to hP2X7R (10 nM, 10 min): 38.5% and 32.7% and 36.4% and 35.2% | Response [%], on-rate to hP2X7R (10 nM, 12 min): 32.3% and 28.4% and 29.5% and 27.9% | Response [%], on-rate to hP2X7R (10 nM, 14 min): 27.8% and 23.8% and 23.7% and 22% | Response [%], on-rate to hP2X7R (10 nM, 16 min): 24.1% and 19.5% and 19% and 18.8% | Response [%], on-rate to hP2X7R (10 nM, 18 min): 21.6% and 17% and 14.3% and 15.8% | Response [%], on-rate to hP2X7R (10 nM, 20 min): 17.8% and 14.3% and 12.1% and 13.7% | Response [%], on-rate to hP2X7R (10 nM, 22 min): 14.9% and 12.5% and 10.6% and 11.9% | Response [%], on-rate to hP2X7R (10 nM, 24 min): 12.6% and 11.2% and 8.8% and 10.6% | Response [%], on-rate to hP2X7R (10 nM, 26 min): 11% and 9.8% and 7.8% and 9.3% | Response [%], on-rate to hP2X7R (30 nM, 10 min): 13.8% and 4.3% and 7.1% and 7.5% | Response [%], on-rate to hP2X7R (30 nM, 12 min): 8.8% and 2.5% and 5.3% and 5.2% | Response [%], on-rate to hP2X7R (30 nM, 14 min): 6% and 1.6% and 3.8% and 3.4% | Response [%], on-rate to hP2X7R (30 nM, 16 min): 4.7% and 0.9% and 2.8% and 2.9% | Response [%], on-rate to hP2X7R (30 nM, 18 min): 3% and 0.6% and 2.3% and 2% | Response [%], on-rate to hP2X7R (30 nM, 20 min): 1.7% and 0.4% and 2% | Response [%], on-rate to hP2X7R (30 nM, 22 min): 1.2% and 0.4% and 1.8% | Response [%], on-rate to hP2X7R (100 nM, 8 min): 0.4% and 0.9% and 0.6% and 1.9% | antagonism of the hP2X7R (TEVC, 300 µM ATP, 100 nM antagonist): strong antagonism | IC50 (TEVC): 3.8 nM | off-rate of binding to the hP2X7R (TEVC): 0.07 min⁻¹ | Response %, plateau (binding equilibrium) (log [Antagonist] M -7): 0.2985% and 1.206% and 0.0001019% and 1.64% | Response %, plateau (binding equilibrium) (log [Antagonist] M -7.5): 0.2898% and 1.031% and 2.642% and 2.211% | Response %, plateau (binding equilibrium) (log [Antagonist] M -8): 7.079% and 5.855% and 4.45E-19% and 3.075% | Response %, plateau (binding equilibrium) (log [Antagonist] M -8.5): 67.01% and 62.07% and 63.87% | off-rate, Response [%] (time 1 min): 2.6% and 0.9% and 1.5% | off-rate, Response [%] (time 2 min): 2.8% and 1.3% and 1.5% | off-rate, Response [%] (time 3 min): 3.3% and 1.5% (2×) | off-rate, Response [%] (time 4 min): 3.1% and 1.7% and 1.5% | off-rate, Response [%] (time 5 min): 2.6% and 1.7% and 1.5% | off-rate, Response [%] (time 6 min): 2.6% and 2% and 1.5% | off-rate, Response [%] (time 7 min): 2.9% and 2.3% and 1.5% | off-rate, Response [%] (time 8 min): 2.9% and 2.3% and 1.5% | off-rate, Response [%] (time 9 min): 2.9% and 2.5% and 1.5% | off-rate, Response [%] (time 10 min): 3.3% and 2.5% and 1.5% | antagonist dissociation from the hP2X7R (within 10 min of wash-out): virtually irreversible binding
